The values below come from patent US20260242391A1 (priority 2023, published 2026).

The subject of one data set is HL-60. Put plainly: HL-60 differentiation potency. To be noted: Homo sapiens. Type of data set: cell-based.
A further data set is described as follows: in vitro. The following applies: human.

The structures appear in SMILES notation.

In the data set on HL-60, `CC(C)[C@H](Oc1ccc(O[C@H]2O[C@@H]3O[C@@]4(C)CC[C@H]5[C@H](C)CC[C@@H]([C@H]2C)[C@@]35OO4)cc1)C(=O)O` [Compound 261, (S)-3-methyl-2-(4-(((3R,5aS,6R,8aS, 9R,10S,12R, 12aR)-3,6,9-trimethyldeca-hydro-12H-3,12-epoxy[1,2]dioxepino[4,3-i]isochromen-10-yl)oxy)phenoxy) butanoic acid] showed an EC50 of less than 10 nM. In addition, in “in vitro”, the IC50 was determined as 360 nM.
Take `C[C@H]1[C@@H](O[C@H]2CC[C@@H](C(=O)N[C@H](C(=O)O)C(C)(C)C)CC2)O[C@@H]2O[C@@]3(C)CC[C@H]4[C@H](C)CC[C@@H]1[C@@]24OO3` [Compound 229, (S)-3,3-dimethyl-2-((1R,4R)-4-(((3R,5aS,6R,8aS, 9R,10S,12R, 12aR)-3,6,9-trimethyldeca-hydro-12H-3,12-epoxy[1,2]dioxepino[4,3-i]isochromen-10-yl)oxy)cyclohexane-1-carboxamido) butanoic acid]: it took 204 nM to reach a half-maximal effect in the data set with HL-60 (EC50). The same compound yielded an IC50 in the data set “in vitro” greater than 20000 nM.
The matching figures for `CO[C@]1(CO[C@H]2O[C@@H]3O[C@@]4(C)CC[C@H]5[C@H](C)CC[C@@H]([C@H]2C)[C@@]35OO4)CC[C@H](C(=O)O)CC1` [Compound 193, (1R,4s)-4-methoxy-4-((((3R,5aS,6R,8aS, 9R,10S,12R, 12aR)-3,6,9-trimethyldeca-hydro-12H-3,12-epoxy[1,2]dioxepino[4,3-i]isochromen-10-yl)oxy)methyl) cyclohexane-1-carboxylic acid]: 7030 nM and greater than 20000 nM.
The matching figures for `C[C@H]1[C@@H](Oc2ccc(OC(C)(C)C(=O)O)cc2)O[C@@H]2O[C@@]3(C)CC[C@H]4[C@H](C)CC[C@@H]1[C@@]24OO3` [Compound 221, 2-methyl-2-(4-(((3R,5aS,6R,8aS, 9R,10S,12R, 12aR)-3,6,9-trimethyldeca-hydro-12H-3,12-epoxy[1,2]dioxepino[4,3-i]isochromen-10-yl)oxy)phenoxy) propanoic acid]: 124 nM and 9610 nM.
The corresponding values for `C[C@H]1[C@@H](OCC2(F)CCCC(C(=O)O)C2)O[C@@H]2O[C@@]3(C)CC[C@H]4[C@H](C)CC[C@@H]1[C@@]24OO3` (stereo partly drawn) [Compound 222, 3-fluoro-3-((((3R,5aS,6R,8aS, 9R,10S,12R, 12aR)-3,6,9-trimethyldeca-hydro-12H-3,12-epoxy[1,2]dioxepino[4,3-i]isochromen-10-yl)oxy)methyl) cyclohexane-1-carboxylic acid] are 134 nM and 19000 nM.
`C[C@H]1[C@@H](Oc2ccc(C(=O)N[C@@H](CC3CCC3)C(=O)O)cc2)O[C@@H]2O[C@@]3(C)CC[C@H]4[C@H](C)CC[C@@H]1[C@@]24OO3` [Compound 205, (S)-3-cyclobutyl-2-(4-(((3R,5aS,6R,8aS, 9R,10S,12R, 12aR)-3,6,9-trimethyldeca-hydro-12H-3,12-epoxy[1,2]dioxepino[4,3-i]isochromen-10-yl)oxy)benzamido) propanoic acid]: a half-maximal response in the data set on HL-60 (EC50) required 35.1 nM. The compound further had an IC50 in “in vitro” of 110 nM.
The compound `C[C@H]1[C@@H](Oc2ccc(C(=O)N[C@H](C(=O)O)C(C)(C)O)cc2)O[C@@H]2O[C@@]3(C)CC[C@H]4[C@H](C)CC[C@@H]1[C@@]24OO3` [Compound 254, (S)-3-hydroxy-3-methyl-2-(4-(((3R,5aS,6R,8aS, 9R,10S,12R, 12aR)-3,6,9-trimethyldeca-hydro-12H-3,12-epoxy[1,2]dioxepino[4,3-i]isochromen-10-yl)oxy)benzamido) butanoic acid] returned a concentration for a half-maximal effect (EC50) in the data set on HL-60 of 4580 nM. In the data set “in vitro”, this compound displayed an IC50 greater than 20000 nM.
The matching figures for `C[C@H]1[C@@H](OC[C@H]2CC[C@@H](C(=O)NC(C(=O)O)C3CCC3)CC2)O[C@@H]2O[C@@]3(C)CC[C@H]4[C@H](C)CC[C@@H]1[C@@]24OO3` (stereo partly drawn) [Compound 185, (S)-2-cyclobutyl-2-((1R,4R)-4-((((3R,5aS,6R,8aS, 9R,10S,12R, 12aR)-3,6,9-trimethyldeca-hydro-12H-3,12-epoxy[1,2]dioxepino[4,3-i]isochromen-10-yl)oxy)methyl)cyclohexane-1-carboxamido) acetic acid]: 50.2 nM and greater than 20000 nM.
The corresponding values for `C[C@H]1[C@@H](Oc2ccc(Cn3cc(C(=O)O)nn3)cc2)O[C@@H]2O[C@@]3(C)CC[C@H]4[C@H](C)CC[C@@H]1[C@@]24OO3` [Compound 245, 1-(4-(((3R,5aS,6R,8aS, 9R,10S,12R, 12aR)-3,6,9-trimethyldeca-hydro-12H-3,12-epoxy[1,2]dioxepino[4,3-i]isochromen-10-yl)oxy)benzyl)-1H-1,2,3-triazole-4-carboxylic acid] are 1340 nM and greater than 20000 nM.
The corresponding values for `C[C@H]1[C@@H](Oc2ccc(OC3CCC(C(=O)O)C3)cc2)O[C@@H]2O[C@@]3(C)CC[C@H]4[C@H](C)CC[C@@H]1[C@@]24OO3` (stereo partly drawn) [Compound 227, 3-(4-(((3R,5aS,6R,8aS, 9R,10S,12R, 12aR)-3,6,9-trimethyldeca-hydro-12H-3,12-epoxy[1,2]dioxepino[4,3-i]isochromen-10-yl)oxy)phenoxy) cyclopentane-1-carboxylic acid] are 32.9 nM and 700 nM.
In the data set with HL-60, `C[C@H]1[C@@H](OCc2ccc(OCC(=O)O)cc2Cl)O[C@@H]2O[C@@]3(C)CC[C@H]4[C@H](C)CC[C@@H]1[C@@]24OO3` [Compound 223, 2-(3-chloro-4-((((3R,5aS,6R,8aS, 9R,10S,12R, 12aR)-3,6,9-trimethyldeca-hydro-12H-3,12-epoxy[1,2]dioxepino[4,3-i]isochromen-10-yl)oxy)methyl)phenoxy)acetic acid] gave an EC50 of 111 nM. In “in vitro”, the IC50 was determined as 2840 nM.
The corresponding values for `C[C@H]1[C@@H](Oc2ccc(O[C@H]3CC[C@@H](C(=O)O)CC3)cc2)O[C@@H]2O[C@@]3(C)CC[C@H]4[C@H](C)CC[C@@H]1[C@@]24OO3` [Compound 243, (1R,4s)-4-(4-(((3R,5aS,6R,8aS, 9R,10S,12R, 12aR)-3,6,9-trimethyldeca-hydro-12H-3,12-epoxy[1,2]dioxepino[4,3-i]isochromen-10-yl)oxy)phenoxy) cyclohexane-1-carboxylic acid] are 74.2 nM and 720 nM.
With `C[C@H]1[C@@H](OCC23[C@H]4[C@H]5[C@@H]2[C@H]2[C@@H]3[C@@H]4C52C(=O)O)O[C@@H]2O[C@@]3(C)CC[C@H]4[C@H](C)CC[C@@H]1[C@@]24OO3` (stereo partly drawn) [Compound 253, (2S,3S,5S,6S,7S, 8S)-4-((((3R,5aS,6R,8aS, 9R,10S,12R, 12aR)-3,6,9-trimethyldeca-hydro-12H-3,12-epoxy[1,2]dioxepino[4,3-i]isochromen-10-yl)oxy)methyl) cubane-1-carboxylic acid], the EC50 in the data set with HL-60 is 237 nM. Further, the IC50 in “in vitro” is greater than 20000 nM.
With `C[C@H]1[C@@H](Oc2ccccc2OCC(=O)O)O[C@@H]2O[C@@]3(C)CC[C@H]4[C@H](C)CC[C@@H]1[C@@]24OO3` [Compound 230, 2-(2-(((3R,5aS,6R,8aS, 9R,10S,12R, 12aR)-3,6,9-trimethyldeca-hydro-12H-3,12-epoxy[1,2]dioxepino[4,3-i]isochromen-10-yl)oxy)phenoxy) acetic acid], the concentration giving a half-maximal response (EC50) in the data set on HL-60 was 2870 nM. The IC50 in “in vitro” is greater than 20000 nM.
The matching figures for `C[C@H]1[C@@H](Oc2ccc(C(=O)N[C@H]3CCC[C@H]3C(=O)O)cc2)O[C@@H]2O[C@@]3(C)CC[C@H]4[C@H](C)CC[C@@H]1[C@@]24OO3` [Compound 187, (1R,2S)-2-(4-(((3R,5aS,6R,8aS, 9R,10S,12R, 12aR)-3,6,9-trimethyldeca-hydro-12H-3,12-epoxy[1,2]dioxepino[4,3-i]isochromen-10-yl)oxy)benzamido) cyclopentane-1-carboxylic acid]: 33.3 nM and 2400 nM.
The matching figures for `C[C@H]1[C@@H](OCC(=O)N2C[C@@H]3CCC[C@@H]3[C@H]2C(=O)O)O[C@@H]2O[C@@]3(C)CC[C@H]4[C@H](C)CC[C@@H]1[C@@]24OO3` [Compound 191, (1S,3aR,6aS)-2-(2-(((3R,5aS,6R, 8aS,9R,10S,12R, 12aR)-3,6,9-trimethyldeca-hydro-12H-3,12-epoxy[1,2]dioxepino[4,3-i]isochromen-10-yl)oxy)acetyl) octahydrocyclo-penta[c]pyrrole-1-carboxlic acid]: 9730 nM and greater than 20000 nM.
The matching figures for `C[C@H]1[C@@H](OCc2ccc(C(=O)NC3CC4(C3)CC(C(=O)O)C4)cc2)O[C@@H]2O[C@@]3(C)CC[C@H]4[C@H](C)CC[C@@H]1[C@@]24OO3` (stereo partly drawn) [Compound 291, 6-(4-((((3R,5aS,6R,8aS, 9R,10S,12R, 12aR)-3,6,9-trimethyldeca-hydro-12H-3,12-epoxy[1,2]dioxepino[4,3-i]isochromen-10-yl)oxy)methyl)benzamido)spiro [3.3]heptane-2-carboxylic acid]: 47.8 nM and 13400 nM.
`C[C@H]1[C@@H](OC[C@H]2CC[C@@H](C(=O)NC34CCC(C(=O)O)(C3)C4)CC2)O[C@@H]2O[C@@]3(C)CC[C@H]4[C@H](C)CC[C@@H]1[C@@]24OO3` [Compound 295, 4-((1R,4s)-4-((((3R,5aS,6R,8aS, 9R,10S,12R, 12aR)-3,6,9-trimethyldeca-hydro-12H-3,12-epoxy[1,2]dioxepino[4,3-i]isochromen-10-yl)oxy)methyl)cyclohexane-1-carboxamido) bicyclo[2.1.1] hexane-1-carboxylic acid] showed a concentration for a half-maximal effect (EC50) in the data set on HL-60 of 197 nM. This compound also showed a half-maximal inhibitory concentration (IC50) in “in vitro” greater than 20000 nM.
For `C[C@H]1[C@@H](OCc2ccc(C(=O)N[C@@H]3C[C@H](C(=O)O)C[C@H]3O)cc2)O[C@@H]2O[C@@]3(C)CC[C@H]4[C@H](C)CC[C@@H]1[C@@]24OO3` [Compound 288, (1S,3R,4R)-3-hydroxy-4-(4-((((3R,5aS,6R,8aS, 9R,10S,12R, 12aR)-3,6,9-trimethyldeca-hydro-12H-3,12-epoxy[1,2]dioxepino[4,3-i]isochromen-10-yl)oxy)methyl)benzamido) cyclopentane-1-carboxylic acid], the EC50 in the data set with HL-60 worked out at 5580 nM. Further, the IC50 in “in vitro” is greater than 20000 nM.

The EC50 is the midpoint of the concentration-response curve. A low value points to an effect from little substance. Broadly, the IC50 is the concentration at which inhibition is half-maximal. A low value points to greater potency in that assay.
